In experiment [1] the target is T1, Adenosine receptor A2b (Homo sapiens, UniProt P29275).
T1 sequence (P29275 whole entry): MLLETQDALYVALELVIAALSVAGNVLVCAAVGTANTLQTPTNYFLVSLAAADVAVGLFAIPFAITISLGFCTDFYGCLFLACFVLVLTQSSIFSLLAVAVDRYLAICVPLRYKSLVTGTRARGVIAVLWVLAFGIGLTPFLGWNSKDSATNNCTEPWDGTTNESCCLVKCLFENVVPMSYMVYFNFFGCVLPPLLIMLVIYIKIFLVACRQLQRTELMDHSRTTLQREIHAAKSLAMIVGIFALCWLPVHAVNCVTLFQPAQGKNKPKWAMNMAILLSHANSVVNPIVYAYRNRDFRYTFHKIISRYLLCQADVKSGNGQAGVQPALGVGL
Description: Antagonist activity at human adenosine A2B receptor expressed in CHO cells assessed as inhibition of NECA-stimulated adenylyl cyclase activity. Format: functional, cell-based.

Experiment [2] addresses T2, Adenosine receptor A3 (Homo sapiens, UniProt P0DMS8). Description: Displacement of [3H]HEMADO from human adenosine A3 receptor expressed in CHO cells. The format is cell-based.
The target in experiment [3] is T3, Adenosine receptor A2a (Homo sapiens, UniProt P29274). Kind of experiment: Displacement of [3H]NECA from human adenosine A2A receptor expressed in CHO cells. The format is cell-based.
T3 sequence (P29274 whole entry): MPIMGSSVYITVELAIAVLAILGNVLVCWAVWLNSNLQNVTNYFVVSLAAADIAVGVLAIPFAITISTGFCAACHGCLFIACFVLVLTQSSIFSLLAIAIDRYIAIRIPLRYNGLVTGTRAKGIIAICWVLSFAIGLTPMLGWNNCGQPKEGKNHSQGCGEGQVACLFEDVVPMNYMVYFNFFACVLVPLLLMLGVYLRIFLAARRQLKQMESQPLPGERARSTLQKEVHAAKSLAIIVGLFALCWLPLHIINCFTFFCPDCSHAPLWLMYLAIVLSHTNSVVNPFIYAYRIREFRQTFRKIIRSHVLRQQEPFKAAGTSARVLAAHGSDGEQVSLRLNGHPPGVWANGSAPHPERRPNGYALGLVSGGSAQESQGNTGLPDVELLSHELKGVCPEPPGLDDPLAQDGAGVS
Experiment [4] has as its target T4, Adenosine receptor A1 (Homo sapiens, UniProt P30542).
T4 sequence (P30542 whole entry): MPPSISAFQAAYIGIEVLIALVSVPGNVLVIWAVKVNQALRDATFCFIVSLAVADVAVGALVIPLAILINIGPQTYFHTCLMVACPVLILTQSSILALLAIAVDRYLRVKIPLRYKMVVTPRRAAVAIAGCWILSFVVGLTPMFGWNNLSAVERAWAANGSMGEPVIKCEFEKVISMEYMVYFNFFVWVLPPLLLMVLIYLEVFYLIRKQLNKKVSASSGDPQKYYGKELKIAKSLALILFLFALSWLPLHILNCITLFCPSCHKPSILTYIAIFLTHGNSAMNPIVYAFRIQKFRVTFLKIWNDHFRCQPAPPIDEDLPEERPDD
Kind of experiment: Displacement of [3H]CCPA from human adenosine A1 receptor expressed in CHO cells. The format is cell-based.

Experiment [5] concerns the target T3, Adenosine receptor A2a. Description: Binding affinity to adenosine A2A receptor (unknown origin).
The target in experiment [6] is T2, Adenosine receptor A3. Description: Binding affinity to adenosine A3 receptor (unknown origin).
For experiment [7], the target named is T4, Adenosine receptor A1. Description: Binding affinity to adenosine A1 receptor (unknown origin).
The target of experiment [8] is T1, Adenosine receptor A2b. Kind of experiment: Binding affinity to adenosine A2B receptor (unknown origin).
Another experiment is filed under the species Homo sapiens. Kind of experiment: Selectivity ratio of Ki for adenosine A1 receptor (unknown origin) to Ki for adenosine A2A receptor (unknown origin).

T2 sequence (P0DMS8 whole entry, looked up): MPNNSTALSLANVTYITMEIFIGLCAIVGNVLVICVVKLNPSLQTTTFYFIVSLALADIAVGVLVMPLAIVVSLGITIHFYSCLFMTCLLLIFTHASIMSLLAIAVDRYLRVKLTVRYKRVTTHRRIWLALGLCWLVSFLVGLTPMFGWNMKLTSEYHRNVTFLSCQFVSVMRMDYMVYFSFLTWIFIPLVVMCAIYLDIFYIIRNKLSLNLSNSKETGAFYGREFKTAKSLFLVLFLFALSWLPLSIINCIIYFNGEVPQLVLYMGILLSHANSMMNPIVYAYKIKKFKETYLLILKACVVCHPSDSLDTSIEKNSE

Regarding `CCCn1c(-c2ccco2)nc2c(NCCCc3ccccc3)ncnc21`, the inhibition constant Ki stood at 1870 nM at Adenosine receptor A2b [1], 959 nM at Adenosine receptor A3 [2], 181 nM on Adenosine receptor A2a [3] and 378 nM on Adenosine receptor A1 [4].

Consider `CCCn1cnc2c(N)nc(NCc3ccccc3)nc21`, for which the inhibition constant Ki at Adenosine receptor A2b [1] is greater than 30000 nM; at Adenosine receptor A3 [2], 5840 nM; at Adenosine receptor A2a [3], 1400 nM; on Adenosine receptor A1 [4] it was 7600 nM.

Regarding `CCCn1c(Br)nc2c(N)nc(NCCc3ccccc3)nc21`, the inhibition constant Ki at Adenosine receptor A2b [1] turned out to be 1490 nM; on Adenosine receptor A3 [2], 1160 nM; on Adenosine receptor A2a [3], 27 nM; at Adenosine receptor A1 [4], 373 nM.

As for `CCCn1cnc2c(N)nc(NCCCc3ccccc3)nc21`, the Ki was greater than 30000 nM at Adenosine receptor A2b [1], 12600 nM at Adenosine receptor A3 [2], 9110 nM on Adenosine receptor A2a [3] and 3640 nM at Adenosine receptor A1 [4].

Take `CCCn1cnc2c(NCc3ccccc3)ncnc21`: the Ki was greater than 30000 nM on Adenosine receptor A2b [1], 29100 nM at Adenosine receptor A3 [2], 22600 nM at Adenosine receptor A2a [3] and 42800 nM at Adenosine receptor A1 [4].

For `CCCn1c(Br)nc2c(N)nc(NCCCc3ccccc3)nc21`, the Ki amounted to 6300 nM at Adenosine receptor A2b [1], 1950 nM at Adenosine receptor A3 [2], 284 nM at Adenosine receptor A2a [3] and 583 nM on Adenosine receptor A1 [4].

For the compound `CCCn1c(-c2ccco2)nc2c(N)nc(NCCCc3ccccc3)nc21`, the Ki is 8240 nM on Adenosine receptor A2b [1], 266 nM on Adenosine receptor A3 [2], 113 nM on Adenosine receptor A2a [3] and 230 nM on Adenosine receptor A1 [4].

On to `CCCn1c(Br)nc2c(NCc3ccccc3)ncnc21`, for which the Ki at Adenosine receptor A2b [1] turned out to be 7490 nM; on Adenosine receptor A3 [2] it was 11100 nM; on Adenosine receptor A2a [3], 1180 nM; at Adenosine receptor A1 [4], 5620 nM.

With `CCCn1c(-c2ccco2)nc2c(NCCc3ccccc3)ncnc21`, the Ki came out at 9280 nM at Adenosine receptor A2b [1], 811 nM on Adenosine receptor A3 [2], 547 nM at Adenosine receptor A2a [3] and 2440 nM on Adenosine receptor A1 [4].

Turning to `CCn1cnc2c(NCCc3ccccc3)ncnc21`, the Ki at Adenosine receptor A2a [5] came to 1340 nM; at Adenosine receptor A3 [6], 10800 nM; on Adenosine receptor A1 [7], 8730 nM; on Adenosine receptor A2b [8], 8130 nM.

As to `CCn1c(-c2ccco2)nc2c(N)ncnc21`, in the experiment filed under Homo sapiens, the Ratio Ki came out at 6.

`CCCn1c(Br)nc2c(N)nc(NCc3ccccc3)nc21`: the Ki on Adenosine receptor A2b [1] came to 1740 nM; on Adenosine receptor A3 [2], 650 nM; at Adenosine receptor A2a [3], 36 nM; on Adenosine receptor A1 [4], 358 nM.

Consider `CCCn1c(-c2ccco2)nc2c(N)nc(NCCc3ccccc3)nc21`, for which the Ki at Adenosine receptor A2b [1] is 2030 nM; at Adenosine receptor A3 [2], 56 nM; at Adenosine receptor A2a [3], 14 nM; at Adenosine receptor A1 [4], 80 nM.

For the compound `CCCn1cnc2c(NCCc3ccccc3)ncnc21`, the Ki at Adenosine receptor A2b [1] was greater than 30000 nM; on Adenosine receptor A3 [2] it was 16900 nM; on Adenosine receptor A2a [3], 12000 nM; at Adenosine receptor A1 [4], 19200 nM.

On to `CCCn1c(Br)nc2c(NCCc3ccccc3)ncnc21`, for which the inhibition constant (Ki) on Adenosine receptor A2b [1] stood at 3190 nM; at Adenosine receptor A3 [2], 2520 nM; on Adenosine receptor A2a [3], 503 nM; at Adenosine receptor A1 [4] it was 1940 nM.

As to `CCCn1c(-c2ccco2)nc2c(N)nc(NCc3ccccc3)nc21`, the Ki on Adenosine receptor A2b [1] was determined as 4610 nM; on Adenosine receptor A3 [2] it was 29 nM; at Adenosine receptor A2a [3], 6.6 nM; on Adenosine receptor A1 [4], 138 nM.

As for `CCCn1cnc2c(N)nc(NCCc3ccccc3)nc21`, the inhibition constant (Ki) on Adenosine receptor A2b [1] came out at 9250 nM; at Adenosine receptor A3 [2], 5880 nM; on Adenosine receptor A2a [3], 738 nM; at Adenosine receptor A1 [4], 2330 nM.

Consider `CCCn1c(Br)nc2c(NCCCc3ccccc3)ncnc21`, for which the Ki at Adenosine receptor A2b [1] was determined as 1760 nM; on Adenosine receptor A3 [2], 12200 nM; at Adenosine receptor A2a [3] it was 1020 nM; at Adenosine receptor A1 [4] it was 2670 nM.

Turning to `CCCn1c(-c2ccco2)nc2c(NCc3ccccc3)ncnc21`, the Ki on Adenosine receptor A2b [1] came to 1760 nM; at Adenosine receptor A3 [2] it was 402 nM; on Adenosine receptor A2a [3] it was 80 nM; on Adenosine receptor A1 [4], 546 nM.

For `CCn1cnc2c(N)nc(NCCc3ccccc3)nc21`, the inhibitory constant (Ki) stood at 150 nM at Adenosine receptor A2a [5], 3200 nM on Adenosine receptor A3 [6], 330 nM on Adenosine receptor A1 [7] and 2410 nM on Adenosine receptor A2b [8].

Regarding `CCCn1cnc2c(NCCCc3ccccc3)ncnc21`, the Ki is greater than 30000 nM at Adenosine receptor A2b [1], 30000 nM on Adenosine receptor A3 [2], 13000 nM at Adenosine receptor A2a [3] and 18600 nM at Adenosine receptor A1 [4].

`CCCn1cnc2c(N)ncnc21` yielded an inhibitory constant (Ki) on Adenosine receptor A3 [2] greater than 100000 nM.

The compound `CCCn1c(Br)nc2c(N)ncnc21` came in with an inhibition constant Ki on Adenosine receptor A3 [2] greater than 100000 nM.

For the origin of these results see ChEMBL document CHEMBL3739359, “New substituted 9-propyladenine derivatives as A2Aadenosine receptor antagonists” (Medchemcomm, 2015).
